Measured values taken from publication PMC7404309, “Regulation of ABA-Non-Activated SNF1-Related Protein Kinase 2 Signaling Pathways by Phosphatidic Acid” (International Journal of Molecular Sciences, 2020).
Counter-ions that a name gives are not always drawn.

Legend:
[1] = biological target: T1, ABI1 (Arabidopsis thaliana, UniProt P49597); assay: ProFluor Ser/Thr PPase fluorescence assay; type: biochemical
T1 construct: GST fusion, E. coli Rosetta, glutathione-Sepharose
T1 sequence (P49597 1-434): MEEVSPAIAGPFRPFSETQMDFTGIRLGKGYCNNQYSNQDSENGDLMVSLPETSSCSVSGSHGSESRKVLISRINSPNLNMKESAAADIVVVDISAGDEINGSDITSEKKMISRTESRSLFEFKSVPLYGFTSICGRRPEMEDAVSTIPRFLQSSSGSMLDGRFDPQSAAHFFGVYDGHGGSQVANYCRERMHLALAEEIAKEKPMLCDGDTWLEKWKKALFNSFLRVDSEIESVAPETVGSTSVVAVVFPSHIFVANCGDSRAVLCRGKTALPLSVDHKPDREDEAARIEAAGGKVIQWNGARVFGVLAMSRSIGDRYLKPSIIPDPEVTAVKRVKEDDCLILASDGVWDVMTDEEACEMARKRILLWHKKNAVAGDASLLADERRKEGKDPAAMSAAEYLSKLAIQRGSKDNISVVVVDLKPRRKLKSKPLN

[2] = biological target: T2, ERD10 (Arabidopsis thaliana, UniProt P42759); assay: phospholipid blot (lipid overlay); type: binding; details: TBST pH 7.5, 4 °C
T2 construct: GST fusion, E. coli Rosetta, glutathione-Sepharose
T2 sequence (P42759 1-260): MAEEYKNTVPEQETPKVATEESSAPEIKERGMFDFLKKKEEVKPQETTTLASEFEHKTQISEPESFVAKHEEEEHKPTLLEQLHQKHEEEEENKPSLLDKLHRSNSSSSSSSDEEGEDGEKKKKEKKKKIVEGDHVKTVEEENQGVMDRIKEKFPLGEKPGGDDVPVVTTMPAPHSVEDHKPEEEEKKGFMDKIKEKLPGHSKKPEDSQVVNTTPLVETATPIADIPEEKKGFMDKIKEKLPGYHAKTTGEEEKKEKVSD

[3] = biological target: T3, PP2CA (Arabidopsis thaliana, UniProt P49598); assay: ProFluor Ser/Thr PPase fluorescence assay; type: biochemical
T3 construct: GST fusion, E. coli Rosetta, glutathione-Sepharose
T3 sequence (P49598 1-399): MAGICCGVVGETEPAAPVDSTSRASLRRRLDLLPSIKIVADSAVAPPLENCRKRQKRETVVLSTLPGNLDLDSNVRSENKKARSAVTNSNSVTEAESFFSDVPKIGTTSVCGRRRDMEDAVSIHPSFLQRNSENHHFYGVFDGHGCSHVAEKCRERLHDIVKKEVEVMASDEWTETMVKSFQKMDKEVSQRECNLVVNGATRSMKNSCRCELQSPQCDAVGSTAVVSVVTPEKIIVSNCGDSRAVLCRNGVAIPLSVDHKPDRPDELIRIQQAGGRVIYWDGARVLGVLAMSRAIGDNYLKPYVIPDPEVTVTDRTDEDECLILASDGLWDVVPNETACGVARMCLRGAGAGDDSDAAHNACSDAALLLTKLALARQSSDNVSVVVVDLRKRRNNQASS

CCCCCCCC/C=C\CCCCCCCC(=O)O[C@H](COC(=O)CCCCCCCCCCCCCCC)COP(=O)(O)O [PA 16:0/18:1, 1-palmitoyl-2-oleoyl-sn-glycero-3-phosphate, sodium salt]
inhibition at 50 µM [1]: 50 to 60% | phospholipid blot (lipid overlay) [2]: the two dehydrins bound both PA and PS | inhibition at 50 µM [3]: 50 to 60%
